Earlier results as cited in patent US20150239832A1 (Neuro Pro Therapeutics, Inc., priority 2012, published 2015).

How the values were obtained:
rat models of anxiety = details: Krystal et al., PLoS ONE 2012
[1] = tested on: patients with medically intractable seizures; details: intravenously administered, intraoperative
rats = details: whole animal studies in rats

Row | Structure (SMILES) | effect on conditioned anxiety (rat models of anxiety) | effect on interictal spiking and stimulation-evoked afterdischarges of the neocortex [1] | effect on kainic acid status (rats) | potency in blocking epileptiform activity (focal bicuculline or 4-AP) and stimulation-evoked afterdischarges (primate cortex) | affinity for NKCC1 relative to KCC2 (NKCC1 over KCC2)
1 | NS(=O)(=O)c1cc(C(=O)O)c(NCc2ccco2)cc1Cl [furosemide] | significantly reduce conditioned anxiety | blocked spontaneously occurring interictal spiking and stimulation-evoked afterdischarges |  |  | 
2 | CCCCNc1cc(C(=O)O)cc(S(N)(=O)=O)c1Oc1ccccc1 [bumetanide] | significantly reduce conditioned anxiety |  | more potent than furosemide | more potent than furosemide | significantly greater affinity for NKCC1 over KCC2
